Results published in ChEMBL document CHEMBL6134868, “Novel Aryl Sulfonium Modification on Vancomycin to Tackle MRSA and VRE In Vitro and In Vivo through Dual Enhanced Cell-Wall and Membrane Inhibition” (J Med Chem, 2025).
Converted amounts (≈) assume the structure as drawn.

Legend:
Format in all cases: functional
Settings in all cases: time 16-24 hrs
[1] = tested on: Staphylococcus aureus; test: Antibacterial activity against vancomycin-intermediate Staphylococcus aureus Mu50 incubated for 16 to 24 hrs by broth microdilution assay
[2] = tested on: Staphylococcus aureus; test: Antibacterial activity against methicillin-resistant Staphylococcus aureus USA300 LAC incubated for 16 to 24 hrs by broth microdilution assay
[3] = tested on: Enterococcus faecium; test: Antibacterial activity against vancomycin-resistant Enterococcus faecium Efm-HS-0649 harboring VanA phenotype incubated for 16 to 24 hrs by broth microdilution assay
[4] = tested on: Enterococcus faecium; test: Antibacterial activity against vancomycin-resistant Enterococcus faecium Efm-HS-08257 harboring VanM phenotype incubated for 16 to 24 hrs by broth microdilution assay
[5] = tested on: Enterococcus faecium; test: Antibacterial activity against vancomycin-resistant Enterococcus faecium Efm-HS-vb01 harboring VanB phenotype incubated for 16 to 24 hrs by broth microdilution assay
[6] = tested on: Enterococcus faecium; test: Antibacterial activity against vancomycin-resistant Enterococcus faecium Efm-HS-vb02 harboring VanB phenotype incubated for 16 to 24 hrs by broth microdilution assay
[7] = tested on: Escherichia coli; test: Antibacterial activity against Escherichia coli AB1157 incubated for 16 to 24 hrs by broth microdilution assay
[8] = tested on: Acinetobacter baumannii; test: Antibacterial activity against carbapenem-resistant Acinetobacter baumannii CRAB-1 clinical isolate incubated for 16 to 24 hrs by broth microdilution assay
[9] = tested on: Acinetobacter baumannii; test: Antibacterial activity against Acinetobacter baumannii ATCC19606 incubated for 16 to 24 hrs by broth microdilution assay
[10] = tested on: Pseudomonas aeruginosa; test: Antibacterial activity against Pseudomonas aeruginosa PAO1 incubated for 16 to 24 hrs by broth microdilution assay
[11] = tested on: Klebsiella pneumoniae; test: Antibacterial activity against Klebsiella pneumoniae KP-1 incubated for 16 to 24 hrs by broth microdilution assay

Row | Structure (SMILES) | MIC [1] [µg/mL] | MIC [2] [µg/mL] | MIC [3] [µg/mL] | MIC [4] [µg/mL] | MIC [5] [µg/mL] | MIC [6] [µg/mL] | MIC [7] [µg/mL] | MIC [8] [µg/mL] | MIC [9] [µg/mL] | MIC [10] [µg/mL] | MIC [11] [µg/mL]
1 | CN[C@H](CC(C)C)C(=O)N[C@H]1C(=O)N[C@@H](CC(N)=O)C(=O)N[C@H]2C(=O)N[C@H]3C(=O)N[C@H](C(=O)N[C@H](C(=O)NCCC[S+](C)CC(O)COc4ccccc4)c4cc(O)cc(O)c4-c4cc3ccc4O)[C@H](O)c3ccc(c(Cl)c3)Oc3cc2cc(c3O[C@@H]2O[C@H](CO)[C@@H](O)[C@H](O)[C@H]2O[C@H]2C[C@](C)(N)[C@H](O)[C@H](C)O2)Oc2ccc(cc2Cl)[C@H]1O.O=C([O-])C(F)(F)F (stereo not given in full) | 2 | 0.25 | 32 | 16 | 16 | 4 | 16 | > 128 | 64 | > 128 | > 128
2 | CN[C@H](CC(C)C)C(=O)N[C@H]1C(=O)N[C@@H](CC(N)=O)C(=O)N[C@H]2C(=O)N[C@H]3C(=O)N[C@H](C(=O)N[C@H](C(=O)NCCC[S+](C)CC(O)COc4ccc(-c5ccc(C(F)(F)F)cc5)cc4)c4cc(O)cc(O)c4-c4cc3ccc4O)[C@H](O)c3ccc(c(Cl)c3)Oc3cc2cc(c3O[C@@H]2O[C@H](CO)[C@@H](O)[C@H](O)[C@H]2O[C@H]2C[C@](C)(N)[C@H](O)[C@H](C)O2)Oc2ccc(cc2Cl)[C@H]1O.O=C([O-])C(F)(F)F (stereo not given in full) | 0.25 | 0.5 | 2 | 1 | 4 | 0.5 | 16 | 128 | 32 | > 128 | > 128
3 | CN[C@H](CC(C)C)C(=O)N[C@H]1C(=O)N[C@@H](CC(N)=O)C(=O)N[C@H]2C(=O)N[C@H]3C(=O)N[C@H](C(=O)N[C@H](C(=O)NCCC[S+](C)CC(O)COc4ccc(Br)cc4)c4cc(O)cc(O)c4-c4cc3ccc4O)[C@H](O)c3ccc(c(Cl)c3)Oc3cc2cc(c3O[C@@H]2O[C@H](CO)[C@@H](O)[C@H](O)[C@H]2O[C@H]2C[C@](C)(N)[C@H](O)[C@H](C)O2)Oc2ccc(cc2Cl)[C@H]1O.O=C([O-])C(F)(F)F (stereo not given in full) | 1 | ≤ 0.063 | 8 | 4 | 4 | 4 | 16 | 64 | 32 | 128 | > 128
4 | CN[C@H](CC(C)C)C(=O)N[C@H]1C(=O)N[C@@H](CC(N)=O)C(=O)N[C@H]2C(=O)N[C@H]3C(=O)N[C@H](C(=O)N[C@H](C(=O)NCCC[S+](C)CC(O)COc4cccc(Cl)c4)c4cc(O)cc(O)c4-c4cc3ccc4O)[C@H](O)c3ccc(c(Cl)c3)Oc3cc2cc(c3O[C@@H]2O[C@H](CO)[C@@H](O)[C@H](O)[C@H]2O[C@H]2C[C@](C)(N)[C@H](O)[C@H](C)O2)Oc2ccc(cc2Cl)[C@H]1O.O=C([O-])C(F)(F)F (stereo not given in full) | 1 | 0.125 | 16 | 4 | 8 | 2 | 16 | 64 | 32 | 128 | > 128
5 | CN[C@H](CC(C)C)C(=O)N[C@H]1C(=O)N[C@@H](CC(N)=O)C(=O)N[C@H]2C(=O)N[C@H]3C(=O)N[C@H](C(=O)N[C@H](C(=O)O)c4cc(O)cc(O)c4-c4cc3ccc4O)[C@H](O)c3ccc(c(Cl)c3)Oc3cc2cc(c3O[C@@H]2O[C@H](CO)[C@@H](O)[C@H](O)[C@H]2O[C@H]2C[C@](C)(NCCC[S+](C)C[C@H](O)COc3ccccc3)[C@H](O)[C@H](C)O2)Oc2ccc(cc2Cl)[C@H]1O.O=C([O-])C(F)(F)F (stereo not given in full) | 1 | 0.125 | 16 | 16 | 8 | 4 | 128 | > 128 | 128 | > 128 | > 128
6 | CN[C@H](CC(C)C)C(=O)N[C@H]1C(=O)N[C@@H](CC(N)=O)C(=O)N[C@H]2C(=O)N[C@H]3C(=O)N[C@H](C(=O)N[C@H](C(=O)O)c4cc(O)cc(O)c4-c4cc3ccc4O)[C@H](O)c3ccc(c(Cl)c3)Oc3cc2cc(c3O[C@@H]2O[C@H](CO)[C@@H](O)[C@H](O)[C@H]2O[C@H]2C[C@](C)(NCCC[S+](C)C[C@@H](O)COc3ccccc3)[C@H](O)[C@H](C)O2)Oc2ccc(cc2Cl)[C@H]1O.O=C([O-])C(F)(F)F (stereo not given in full) | 1 | 0.25 | 16 | 16 | 16 | 4 | 128 | 128 | 128 | > 128 | > 128
7 | CN[C@H](CC(C)C)C(=O)N[C@H]1C(=O)N[C@@H](CC(N)=O)C(=O)N[C@H]2C(=O)N[C@H]3C(=O)N[C@H](C(=O)N[C@H](C(=O)O)c4cc(O)cc(O)c4-c4cc3ccc4O)[C@H](O)c3ccc(c(Cl)c3)Oc3cc2cc(c3O[C@@H]2O[C@H](CO)[C@@H](O)[C@H](O)[C@H]2O[C@H]2C[C@](C)(NCCC[S+](C)CC(O)COc3ccccc3)[C@H](O)[C@H](C)O2)Oc2ccc(cc2Cl)[C@H]1O.O=C([O-])C(F)(F)F (stereo not given in full) | 1 | 0.25 | 16 | 16 | 16 | 4 | 128 | 128 | 128 | > 128 | > 128
8 | CN[C@H](CC(C)C)C(=O)N[C@H]1C(=O)N[C@@H](CC(N)=O)C(=O)N[C@H]2C(=O)N[C@H]3C(=O)N[C@H](C(=O)N[C@H](C(=O)NCCC[S+](C)C[C@@H](O)COc4ccccc4)c4cc(O)cc(O)c4-c4cc3ccc4O)[C@H](O)c3ccc(c(Cl)c3)Oc3cc2cc(c3O[C@@H]2O[C@H](CO)[C@@H](O)[C@H](O)[C@H]2O[C@H]2C[C@](C)(N)[C@H](O)[C@H](C)O2)Oc2ccc(cc2Cl)[C@H]1O.O=C([O-])C(F)(F)F (stereo not given in full) | 2 | 0.25 | 32 | 16 | 16 | 2 | 16 | > 128 | 64 | > 128 | > 128
9 | CN[C@H](CC(C)C)C(=O)N[C@H]1C(=O)N[C@@H](CC(N)=O)C(=O)N[C@H]2C(=O)N[C@H]3C(=O)N[C@H](C(=O)N[C@H](C(=O)O)c4cc(O)c(CNCCCSCC(O)COc5ccc(-c6ccc(C(F)(F)F)cc6)cc5)c(O)c4-c4cc3ccc4O)[C@H](O)c3ccc(c(Cl)c3)Oc3cc2cc(c3O[C@@H]2O[C@H](CO)[C@@H](O)[C@H](O)[C@H]2O[C@H]2C[C@](C)(N)[C@H](O)[C@H](C)O2)Oc2ccc(cc2Cl)[C@H]1O (stereo not given in full) | 1 (≈ 0.541 µM) | 0.125 (≈ 0.0677 µM) | 4 (≈ 2.17 µM) | 2 (≈ 1.08 µM) | 4 (≈ 2.17 µM) | 2 (≈ 1.08 µM) | > 128 | 128 (≈ 69.3 µM) | 32 (≈ 17.3 µM) | > 128 | > 128
10 | CN[C@H](CC(C)C)C(=O)N[C@H]1C(=O)N[C@@H](CC(N)=O)C(=O)N[C@H]2C(=O)N[C@H]3C(=O)N[C@H](C(=O)N[C@H](C(=O)NCCC[S+](C)CC(O)COc4ccc(C(F)(F)F)cc4)c4cc(O)cc(O)c4-c4cc3ccc4O)[C@H](O)c3ccc(c(Cl)c3)Oc3cc2cc(c3O[C@@H]2O[C@H](CO)[C@@H](O)[C@H](O)[C@H]2O[C@H]2C[C@](C)(N)[C@H](O)[C@H](C)O2)Oc2ccc(cc2Cl)[C@H]1O.O=C([O-])C(F)(F)F (stereo not given in full) | 1 | ≤ 0.063 | 16 | 8 | 8 | 4 | 32 | 64 | 32 | 128 | > 128
